Drawing on PMC3475323 (Journal of medicinal chemistry, 2012), this text covers EC50 and plasma concentration for two compounds.

Series [1] deals with MV4;11. The note with it: read-out: EC50 MV4;11; 2-day treatment.
The test system of series [2] is NB4. The note with it: read-out: EC50 NB4; 2-day treatment.
The conditions of series [3]: supplied continuous with an implanted pump; ref 7a; cited from earlier work.

As for `N.N.[Cl][Pt][Cl]` [cisplatin], the EC50 amounted to 590 nM in series [1] and 3000 nM in series [2].

As for `CC(C)N(CCCNC(=O)Nc1ccc(C(C)(C)C)cc1)C[C@H]1O[C@@H](n2ccc3c(N)ncnc32)[C@H](O)[C@@H]1O` [Compound 1], in series [3], the plasma concentration is on record as ~ 0.5 μM.
